The values that follow come from publication PMC13230610, “Fast analysis and engineering of protein function by microbe-independent deep assembly and screening” (Molecular Systems Biology, 2026).

Test [1] concerns T1, ACh-NeuBI1b (ACh-NeuBI0.5 QAE; engineered OpuBC fused with SmBiT/LgBiT and mScarlet-I).
T1 construct: ACh-NeuBI0.5 QAE
Kind of test: bioluminescence dose-response in HEK293A cells; also purified protein responded. It counts as cell-based, Homo sapiens (HEK293A cells).

Test [2] concerns T2, ACh-NeuBI0.5 (engineered OpuBC fused with SmBiT/LgBiT and mScarlet-I).
T2 construct: mScarlet-I at N-terminus of OpuBC (30-106)-linker 1 (Phe)-SmBiT (∆C3)-LgBiT-OpuBC (107-305)
The test can be described thus: bioluminescence dose-response of indicator expressed on HEK293A cells. Type of test: cell-based, Homo sapiens (HEK293A cells).

pKd: −log10 of the molar value.

In the case of `CC(=O)OCC[N+](C)(C)C` [acetylcholine], the pKd (commonly the negative decadic logarithm of the Kd, by convention in mol/L) in test [1] was 3.73; in test [2], 3.05.
Compound `C[N+](C)(C)CCO` [choline] had a pKd in test [2] of 1.96.
